Source: patent publication US10766894B2, “Aza-indazole compounds for use in tendon and/or ligament injuries” (NOVARTIS AG, priority 2016, dated 2020)

Tested on: mouse immortalized TT-D6 Scx-luciferase (ScxL) cell line; transcriptional activation of Scleraxis (Scx) gene
Assay: SCX-LUC in vitro assay (scleraxis promoter luciferase reporter)
Type: cell-based
Settings: Mus musculus, 96 h; Examples table; TT-D6 Scx-luciferase cells, 1 ng/ml TGFβ1, four days; read-out: Scx-Luc (EC50 μM)

Question: How did the EC50 turn out when `Nc1n[nH]c2ccc(-c3ccc(NS(=O)(=O)c4ccc(F)cc4)cc3Cl)nc12` [Example 6, N-(4-(3-amino-1H-pyrazolo[4,3-b]pyridin-5-yl)-3-chlorophenyl)-4-fluorobenzenesulfonamide] was run?
Answer: 0.58 µM

Question: With `Nc1n[nH]c2ccc(-c3ccc(NS(=O)(=O)C4CCCCC4O)cc3Cl)nc12` (stereo not shown) [Example 17, N-(4-(3-amino-1H-pyrazolo[4,3-b]pyridin-5-yl)-3-chlorophenyl)-2-hydroxycyclohexane-1-sulfonamide] as the compound, how does the EC50 read?
Answer: 1.84 µM

Question: How did the EC50 turn out when `Nc1n[nH]c2ccc(-c3ccc(NS(=O)(=O)c4ccc5c(c4)NCCO5)cc3Cl)nc12` [Example 53, N-(4-(3-amino-1H-pyrazolo[4,3-b]pyridin-5-yl)-3-chlorophenyl)-3,4-dihydro-2H-benzo[b][1,4]oxazine-6-sulfonamide] was run?
Answer: 2.74 µM

Question: How did the EC50 turn out when `Nc1n[nH]c2ccc(-c3ccc(S(=O)(=O)NC4CCCC(O)C4)cc3Cl)nc12` (stereo not shown) [Example 44, 4-(3-amino-1H-pyrazolo[4,3-b]pyridin-5-yl)-3-chloro-N-(3-hydroxycyclohexyl)benzenesulfonamide] was run?
Answer: 4.12 µM

Question: Which EC50 does the source give for `Nc1n[nH]c2ccc(-c3ccc(NS(=O)(=O)C4CCCCC4)cc3Cl)nc12` [Example 15, N-(4-(3-amino-1H-pyrazolo[4,3-b]pyridin-5-yl)-3-chlorophenyl)cyclohexanesulfonamide] here?
Answer: 0.874 µM

Question: `Cc1cc(S(=O)(=O)N[C@H]2C[C@@H](CO)C2)ccc1-c1ccc2[nH]nc(N)c2n1` [Example 47, 4-(3-amino-1H-pyrazolo[4,3-b]pyridin-5-yl)-N-((1s,3s)-3-(hydroxymethyl)cyclobutyl)-3-methylbenzenesulfonamide] was tested. Which EC50 did it give?
Answer: 5.34 µM

Question: How did the EC50 turn out when `Nc1n[nH]c2ccc(-c3ccc(S(=O)(=O)N4CC5CCCC5C4)cc3Cl)nc12` (stereo not shown) [Example 51, 5-(2-chloro-4-((hexahydrocyclopenta[c]pyrrol-2(1H)-yl)sulfonyl)phenyl)-1H-pyrazolo[4,3-b]pyridin-3-amine] was run?
Answer: 2.39 µM

Question: Which EC50 does the source give for `Nc1n[nH]c2ccc(-c3ccc(S(=O)(=O)N[C@H]4CCC[C@@H]4O)cc3Cl)nc12` [Example 94, 4-(3-amino-1H-pyrazolo[4,3-b]pyridin-5-yl)-3-chloro-N-((1S,2S)-2-hydroxycyclopentyl)benzenesulfonamide] here?
Answer: 0.026 µM

Question: How did the EC50 turn out when `Nc1n[nH]c2ccc(-c3ccc(NS(=O)(=O)c4ccc(Cl)c(Cl)c4)cc3Cl)nc12` [Example 43, N-(4-(3-amino-1H-pyrazolo[4,3-b]pyridin-5-yl)-3-chlorophenyl)-3,4-dichlorobenzenesulfonamide] was run?
Answer: 3.31 µM

Question: With `Nc1n[nH]c2ccc(-c3ccc(S(=O)(=O)Nc4cccc(Cl)c4)cc3Cl)nc12` [Example 90, 4-(3-amino-1H-pyrazolo[4,3-b]pyridin-5-yl)-3-chloro-N-(3-chlorophenyl)benzenesulfonamide] as the compound, how does the EC50 read?
Answer: 2.54 µM

Question: Which EC50 does the source give for `Nc1n[nH]c2ccc(-c3ccc(NS(=O)(=O)c4cccc(Cl)c4)cc3Cl)nc12` [Example 28, N-(4-(3-amino-1H-pyrazolo[4,3-b]pyridin-5-yl)-3-chlorophenyl)-3-chlorobenzenesulfonamide] here?
Answer: 2.5 µM

Question: `Nc1n[nH]c2ccc(-c3ccc(S(=O)(=O)Nc4cccc(Cl)c4F)cc3Cl)nc12` [Example 52, 4-(3-amino-1H-pyrazolo[4,3-b]pyridin-5-yl)-3-chloro-N-(3-chloro-2-fluorophenyl)benzenesulfonamide] was tested. Which EC50 did it give?
Answer: 1.1 µM

Question: How did the EC50 turn out when `Nc1n[nH]c2ccc(-c3ccc(S(=O)(=O)N4CC(F)(F)C4)cc3Cl)nc12` [Example 74, 5-(2-chloro-4-((3,3-difluoroazetidin-1-yl)sulfonyl)phenyl)-1H-pyrazolo[4,3-b]pyridin-3-amine] was run?
Answer: 2.03 µM

Question: For `Nc1n[nH]c2ccc(-c3ccc(S(=O)(=O)N[C@@H]4CC[C@H](O)C4)cc3Cl)nc12` [Example 23, 4-(3-amino-1H-pyrazolo[4,3-b]pyridin-5-yl)-3-chloro-N-((1R,3S)-3-hydroxycyclopentyl)benzenesulfonamide], which EC50 is on record?
Answer: 2.28 µM

Question: With `Nc1n[nH]c2ccc(-c3ccc(S(=O)(=O)N[C@H]4C[C@@H](CO)C4)cc3Cl)nc12` [Example 85, 4-(3-amino-1H-pyrazolo[4,3-b]pyridin-5-yl)-3-chloro-N-((1s,3s)-3-(hydroxymethyl)cyclobutyl)benzenesulfonamide] as the compound, how does the EC50 read?
Answer: 1.75 µM

Question: `Nc1n[nH]c2ccc(-c3ccc(NS(=O)(=O)c4ccc(F)c(F)c4)cc3Cl)nc12` [Example 10, N-(4-(3-amino-1H-pyrazolo[4,3-b]pyridin-5-yl)-3-chlorophenyl)-3,4-difluorobenzenesulfonamide] was tested. Which EC50 did it give?
Answer: 0.64 µM

Question: How did the EC50 turn out when `Nc1n[nH]c2ccc(-c3ccc(S(=O)(=O)N4CC(Oc5ccccc5)C4)cc3Cl)nc12` [Example 87, 5-(2-chloro-4-((3-phenoxyazetidin-1-yl)sulfonyl)phenyl)-1H-pyrazolo[4,3-b]pyridin-3-amine] was run?
Answer: 0.83 µM

Question: With `Cc1ccc(O)c(S(=O)(=O)Nc2ccc(-c3ccc4[nH]nc(N)c4n3)c(Cl)c2)c1` [Example 32, N-(4-(3-amino-1H-pyrazolo[4,3-b]pyridin-5-yl)-3-chlorophenyl)-2-hydroxy-5-methylbenzenesulfonamide] as the compound, how does the EC50 read?
Answer: 1.94 µM

Question: With `Nc1n[nH]c2ccc(-c3ccc(NS(=O)(=O)c4cccc(C(F)(F)F)c4)cc3Cl)nc12` [Example 62, N-(4-(3-amino-1H-pyrazolo[4,3-b]pyridin-5-yl)-3-chlorophenyl)-3-(trifluoromethyl)benzenesulfonamide] as the compound, how does the EC50 read?
Answer: 1.3 µM

Question: For `Nc1n[nH]c2ccc(-c3ccc(NS(=O)(=O)c4cccc(F)c4)cc3Cl)nc12` [Example 41, N-(4-(3-amino-1H-pyrazolo[4,3-b]pyridin-5-yl)-3-chlorophenyl)-3-fluorobenzenesulfonamide], which EC50 is on record?
Answer: 2.25 µM

Question: Which EC50 does the source give for `CC1(C)CCC(NS(=O)(=O)c2ccc(-c3ccc4[nH]nc(N)c4n3)c(Cl)c2)CC1` [Example 24, 4-(3-amino-1H-pyrazolo[4,3-b]pyridin-5-yl)-3-chloro-N-(4,4-dimethylcyclohexyl)benzenesulfonamide] here?
Answer: 1.59 µM

Question: With `Cc1cc(S(=O)(=O)N[C@H]2CC[C@@H](O)CC2)ccc1-c1ccc2[nH]nc(N)c2n1` [Example 69, 4-(3-amino-1H-pyrazolo[4,3-b]pyridin-5-yl)-N-((1s,4s)-4-hydroxycyclohexyl)-3-methylbenzenesulfonamide] as the compound, how does the EC50 read?
Answer: 0.912 µM

Question: Which EC50 does the source give for `Cc1cc(S(=O)(=O)NC2CCCC(O)C2)ccc1-c1ccc2[nH]nc(N)c2n1` (stereo not shown) [Example 65, 4-(3-amino-1H-pyrazolo[4,3-b]pyridin-5-yl)-N-(3-hydroxycyclohexyl)-3-methylbenzenesulfonamide] here?
Answer: 0.122 µM

Question: Which EC50 does the source give for `Nc1n[nH]c2ccc(-c3ccc(S(=O)(=O)NCc4ccccc4)cc3Cl)nc12` [Example 73, 4-(3-amino-1H-pyrazolo[4,3-b]pyridin-5-yl)-N-benzyl-3-chlorobenzenesulfonamide] here?
Answer: 3.53 µM

Question: How did the EC50 turn out when `N#Cc1cccc(S(=O)(=O)Nc2ccc(-c3ccc4[nH]nc(N)c4n3)c(Cl)c2)c1` [Example 22, N-(4-(3-amino-1H-pyrazolo[4,3-b]pyridin-5-yl)-3-chlorophenyl)-3-cyanobenzenesulfonamide] was run?
Answer: 0.035 µM

Question: How did the EC50 turn out when `COc1ccc(S(=O)(=O)Nc2ccc(-c3ccc4[nH]nc(N)c4n3)c(Cl)c2)cc1NC(C)=O` [Example 61, N-(5-(N-(4-(3-amino-1H-pyrazolo[4,3-b]pyridin-5-yl)-3-chlorophenyl)sulfamoyl)-2-methoxyphenyl)acetamide] was run?
Answer: 1.54 µM

Question: Which EC50 does the source give for `Cc1cc(S(=O)(=O)N[C@H]2C[C@@H](O)C2)ccc1-c1ccc2[nH]nc(N)c2n1` [Example 64, 4-(3-amino-1H-pyrazolo[4,3-b]pyridin-5-yl)-N-((1s,3s)-3-hydroxycyclobutyl)-3-methylbenzenesulfonamide] here?
Answer: 0.162 µM

Question: With `Cc1cc(S(=O)(=O)N[C@@H]2CC[C@H](O)C2)ccc1-c1ccc2[nH]nc(N)c2n1` [Example 19, 4-(3-amino-1H-pyrazolo[4,3-b]pyridin-5-yl)-N-((1R,3S)-3-hydroxycyclopentyl)-3-methylbenzenesulfonamide] as the compound, how does the EC50 read?
Answer: 1.7 µM

Question: How did the EC50 turn out when `Nc1n[nH]c2ccc(-c3ccc(NS(=O)(=O)c4ccc(OC(F)(F)F)cc4)cc3Cl)nc12` [Example 88, N-(4-(3-amino-1H-pyrazolo[4,3-b]pyridin-5-yl)-3-chlorophenyl)-4-(trifluoromethoxy)benzenesulfonamide] was run?
Answer: 2.43 µM

Question: How did the EC50 turn out when `Cc1cc(S(=O)(=O)NC2CCCCC2)ccc1-c1ccc2[nH]nc(N)c2n1` [Example 39, 4-(3-amino-1H-pyrazolo[4,3-b]pyridin-5-yl)-N-cyclohexyl-3-methylbenzenesulfonamide] was run?
Answer: 0.473 µM

Question: Which EC50 does the source give for `Nc1n[nH]c2ccc(-c3ccc(S(=O)(=O)N[C@H]4CCC[C@H]4O)cc3Cl)nc12` [Example 35, 4-(3-amino-1H-pyrazolo[4,3-b]pyridin-5-yl)-3-chloro-N-((1S,2R)-2-hydroxycyclopentyl)benzenesulfonamide] here?
Answer: 2.73 µM

Question: Which EC50 does the source give for `Cc1cc(S(=O)(=O)N2CCC(CCO)C2)ccc1-c1ccc2[nH]nc(N)c2n1` (stereo not shown) [Example 83, 2-(1-((4-(3-amino-1H-pyrazolo[4,3-b]pyridin-5-yl)-3-methylphenyl)sulfonyl)pyrrolidin-3-yl)ethanol] here?
Answer: 5.33 µM

Question: With `Cc1cc(S(=O)(=O)N[C@H]2CC[C@H](O)CC2)ccc1-c1ccc2[nH]nc(N)c2n1` [Example 54, 4-(3-amino-1H-pyrazolo[4,3-b]pyridin-5-yl)-N-((1r,4r)-4-hydroxycyclohexyl)-3-methylbenzenesulfonamide] as the compound, how does the EC50 read?
Answer: 1.13 µM

Question: With `Cc1cc(S(=O)(=O)N[C@H]2CC[C@@](O)(C(F)(F)F)CC2)ccc1-c1ccc2[nH]nc(N)c2n1` [Example 68, 4-(3-amino-1H-pyrazolo[4,3-b]pyridin-5-yl)-N-((1r,4r)-4-hydroxy-4-(trifluoromethyl)cyclohexyl)-3-methylbenzenesulfonamide] as the compound, how does the EC50 read?
Answer: 0.354 µM

Same assay, conditions: Mus musculus, 96 h; Table 1; TT-D6 Scx-luciferase cells, 1 ng/ml TGFβ1, four days; read-out: Scx-Luc (EC50 uM)

Question: For `CC1(C)CN(C(=O)c2ccc(-c3cccc4nc(NC(=O)C5CC5)nn34)cc2)C1` [reference compound], which EC50 is on record?
Answer: 1.42 µM

Question: For `C[C@@H](O)c1nc2cnc3[nH]ccc3c2n1[C@H]1CC[C@H](C#N)CC1` [reference compound], which EC50 is on record?
Answer: 2.69 µM

Question: How did the EC50 turn out when `C[C@@H](O)c1nc2cnc3[nH]ccc3c2n1[C@@H]1CCCOC1` [reference compound] was run?
Answer: 1.34 µM
